In brackets after ≈: the same amount, converted by molar mass. Several values for one entry are separate records, joined by “and”; a condition that tells them apart may be missing. Equal entries are not always repeated. Where two headings read alike, the source gives them in different places.
What was measured:
E. coli BW25113 = experiment: Thiostrepton susceptibility of E. coli in MHB versus 10:90; assay type: cell-based, Escherichia coli; conditions: 10:90 medium; up to 10 μM (17 μg/ml) TS
Description: (§1) The susceptibility of P. aeruginosa PA14, E. coli BW25113, A. baumannii C0286, and S. aureus USA300 was compared in MHB versus 10:90 medium. E. coli lacks FpvAB and is resistant to TS in both media.

[1] = tested on: methicillin-resistant Staphylococcus aureus USA300; experiment: Thiostrepton susceptibility of S. aureus in MHB versus 10:90; assay type: cell-based; conditions: both 10:90 medium and MHB
Description: as §1

[2] = tested on: P. aeruginosa PA14 and Mar2xT7 transposon mutants; experiment: MIC microbroth dilution assay, thiostrepton susceptibility of PA14 and mutants; assay type: cell-based, Pseudomonas aeruginosa; conditions: for MIC / IC50: Pseudomonas aeruginosa, VBMM; for IC50: read-out: ICCO
Description: MICs were determined with microbroth dilution assays in Nunc 96-well plates. Vehicle controls consisted of 1:75 dilutions of DMSO in 10:90 inoculated with PA14 or its mutants as described in “Growth Curves” above. Sterile controls consisted of 1:75 dilutions of DMSO in 10:90. Seven serially diluted concentrations of TS—with 17 μg/mL being the highest final concentration—was set up in triplicate. Tests were done with 1:75 dilutions of each TS concentration in 10:90 inoculated with PA14 or its mutants as described in Growth Curves. Plates were sealed to prevent evaporation and incubated with shaking at 200 rpm, 16 h, 37° C. The OD600 of the plates was read (Multiskan Go—Thermo Fisher Scientific) and used to calculate MIC. Growth is proportional to the darkness intensity whereas white indicates no observable growth. The final volume of each well was 150 μL and each experiment was repeated at least three times.
To identify the route of iron-limitation dependent TS entry into P. aeruginosa, the susceptibility of mutants from the ordered PA14 transposon library (15) that had insertions in genes encoding known siderophore receptors, as well as mutants with insertions in uncharacterized OM proteins with homology to siderophore receptors was tested. In VBMM, most mutants had MICs similar to those of the parental strain (Table 1). […]. P. aeruginosa encodes two type I pyoverdine receptors, FpvA and FpvB, with ˜39% amino acid identity (71% similarity). […]. When fpvA was deleted in the fpvB background, the double mutant had similar resistance levels to the fpvA single mutant (Table 1), but complementation of that mutant with fpvB on a low-copy number plasmid increased TS susceptibility (Table 1).

P. aeruginosa PA14 = experiment: Checkerboards pinned to LB agar (bactericidal activity); assay type: cell-based, Pseudomonas aeruginosa; conditions: overnight 37° C.
Description: Checkerboards were pinned to LB agar plates using a sterile 96 pin tool. Plates were incubated overnight at 37° C. Independent experiments were conducted 3 times and a representative plate is shown.

[3] = tested on: Acinetobacter baumannii clinical isolates; experiment: Clinical isolates testing, A. baumannii; assay type: cell-based; conditions: 10:90
Description: (§2) Clinical isolates of P. aeruginosa and A. baumannii were inoculated from −80° C. stocks into 200 μL LB broth and grown with shaking at 200 rpm, 16 h, 37° C. in Nunc 96-well plates. The overnight cultures were subcultured (1:25 dilution) into 10:90 and grown with shaking at 200 rpm, 2 h, 37° C. Vehicle controls consisted of 4 μL of DMSO, 144 μL 10:90 and 2 μL of subculture. Sterile controls consisted of 4 μL of DMSO and 146 μL 10:90. […]. The final volume of each well was 150 μL and each checkerboard was repeated at least three times. Plates were incubated with shaking at 200 rpm, 16 h, 37° C. and OD600 was measured (Multiskan Go—Thermo Fisher Scientific). The results were plotted as percent of control (wells containing only DMSO) using Prism (GraphPad).
(§3) Clinical isolates were grown and tested as described in Example 1. Briefly, clinical isolates were inoculated from glycerol stocks stored at −80° C. into Nunc 96-well plates and grown overnight at 37° C., for 16 h with shaking in LB (200 rpm). Overnights were subcultured (1:25) into fresh 10:90 medium and grown for 2 h under the same growth conditions. Subcultures were diluted 1:75 in fresh 10:90. Compounds were diluted 1:75 to obtain the final concentration. DOXY and CLI were added at a final concentration of 1 μg/mL, CO was used at 2 μg/mL, TRO was used at 4 μg/mL, TS was used at 8.3 μg/mL, and DSX was used at 32 μg/mL. Vehicle and sterility controls were included. Plates were incubated overnight with the same conditions. The OD600 was read (Multiscan Go—Thermo Fisher Scientific), analyzed using Excel, and the data plotted using Prism (GraphPad).
(§4) Culture conditions, checkerboard assays using P. aeruginosa PA14 and dose-response assays were performed as described in Example 1. In addition to TS, other thiopeptides tested were siomycin A (SM), thiocillin I (TC), micrococcin P1 (MC), nosiheptide (NH), berninamycin A (BER), and geninthiocin A (GEN). For dose response assays of the combinations conducted in 10:90, DSX concentration was constant at 64 μg/mL.

[4] = tested on: P. aeruginosa clinical isolates; experiment: Clinical isolates testing, P. aeruginosa; assay type: cell-based, Pseudomonas aeruginosa; conditions: Pseudomonas aeruginosa; approximately 1 in 10 of 96 clinical isolates; 10:90
Description: as §2, §3, §4

[5] = PA14, strain chtA::Mar2xT7 (PA4675)
[6] = PA14, strain fithA::Mar2xT7 (PA4516)
[7] = PA14, strain fiuA::Mar2xT7 (PA0470)
[8] = PA14, strain foxA::Mar2xT7 (PA2466)
[9] = PA14, strain fptA::Mar2xT7 (PA4221)
[10] = PA14, strain fpvA fpvB::Mar2xT7 (PA2398, PA4168)
[11] = PA14, strain fpvA fpvB::Mar2xT7 + pUCP20-fpvB
[12] = PA14, strain fpvA fpvB::Mar2xT7 + pUCP20
[13] = PA14, strain fpvA::Mar2xT7 (PA2398)
[14] = PA14, strain fpvB::Mar2xT7 (PA4168)
[15] = PA14, strain hasR::Mar2xT7 (PA3408)
[16] = PA14, strain pfeA::Mar2xT7 (PA2688)
[17] = PA14, strain phuR::Mar2xT7 (PA4710)
[18] = PA14, strain pirA::Mar2xT7 (PA0931)
[19] = PA14, strain piuA::Mar2xT7 (PA4514)
[20] = PA14, strain pvdA::Mar2xT7 (PA2386)

C=C(NC(=O)C(=C)NC(=O)c1csc(C2=N[C@@H]3c4csc(n4)[C@H]4NC(=O)c5csc(n5)[C@H]([C@](C)(O)[C@@H](C)O)NC(=O)[C@H]5CSC(=N5)/C(=C/C)NC(=O)[C@H]([C@@H](C)O)NC(=O)c5csc(n5)[C@]3(CC2)NC(=O)[C@H](C)NC(=O)C(=C)NC(=O)[C@H](C)NC(=O)[C@H]([C@@H](C)CC)N[C@@H]2C=Cc3c([C@H](C)O)cc(nc3[C@H]2O)C(=O)O[C@@H]4C)n1)C(N)=O [TS, thiostrepton]
growth (E. coli BW25113): unaffected | TS concentration inhibiting growth [1]: < 40 nM | susceptibility to TS in Mueller-Hinton broth ([2]; P. aeruginosa PA14, nutrient-rich MHB versus 10:90): reduced susceptibility | MIC ([2]; PA14, strain PA14 (wild type)): 0.6 µM (≈ 0.999 µg/mL) | IC50 ([2]; PA14, strain PA14 (wild type)): 0.26 µg/mL (≈ 0.156 µM) | MIC ([2]; PA14, strain PA0151::Mar2xT7): 0.45 µM (≈ 0.749 µg/mL) | IC50 ([2]; PA14, strain PA0151::Mar2xT7): 0.26 µg/mL (≈ 0.156 µM) | MIC ([2]; PA14, strain PA1322::Mar2xT7): 0.41 µM (≈ 0.683 µg/mL) | IC50 ([2]; PA14, strain PA1322::Mar2xT7): 0.26 µg/mL (≈ 0.156 µM) | MIC ([2]; PA14, strain PA4837::Mar2xT7): 0.41 µM (≈ 0.683 µg/mL) | IC50 ([2]; PA14, strain PA4837::Mar2xT7): 0.26 µg/mL (≈ 0.156 µM) | MIC [2, 5]: 0.36 µM (≈ 0.599 µg/mL) | IC50 [2, 5]: 0.59 µg/mL (≈ 0.354 µM) | MIC [2, 6]: 0.5 µM (≈ 0.832 µg/mL) | IC50 [2, 6]: 0.26 µg/mL (≈ 0.156 µM) | MIC [2, 7]: 0.36 µM (≈ 0.599 µg/mL) | IC50 [2, 7]: 0.26 µg/mL (≈ 0.156 µM) | MIC [2, 8]: 0.6 µM (≈ 0.999 µg/mL) | IC50 [2, 8]: 0.26 µg/mL (≈ 0.156 µM) | MIC [2, 9]: 0.45 µM (≈ 0.749 µg/mL) | IC50 [2, 9]: 0.26 µg/mL (≈ 0.156 µM) | MIC [2, 10]: 7.5 µM (≈ 12.5 µg/mL) | IC50 [2, 10]: 6.9 µg/mL (≈ 4.14 µM) | MIC [2, 11]: 2.5 µM | IC50 [2, 11]: 2.8 µg/mL | MIC [2, 12]: 7.5 µM | IC50 [2, 12]: 4.2 µg/mL | MIC [2, 13]: 7.5 µM (≈ 12.5 µg/mL) | IC50 [2, 13]: 3.7 µg/mL (≈ 2.22 µM) | MIC [2, 14]: 1.3 µM (≈ 2.16 µg/mL) | IC50 [2, 14]: 1.8 µg/mL (≈ 1.08 µM) | MIC [2, 15]: 0.6 µM (≈ 0.999 µg/mL) | IC50 [2, 15]: 0.35 µg/mL (≈ 0.21 µM) | MIC [2, 16]: 0.82 µM (≈ 1.37 µg/mL) | IC50 [2, 16]: 0.26 µg/mL (≈ 0.156 µM) | MIC [2, 17]: 0.21 µM (≈ 0.35 µg/mL) | IC50 [2, 17]: 0.26 µg/mL (≈ 0.156 µM) | MIC [2, 18]: 0.6 µM (≈ 0.999 µg/mL) | IC50 [2, 18]: 0.35 µg/mL (≈ 0.21 µM) | MIC [2, 19]: 0.36 µM (≈ 0.599 µg/mL) | IC50 [2, 19]: 0.35 µg/mL (≈ 0.21 µM) | MIC [2, 20]: 0.21 µM (≈ 0.35 µg/mL) | IC50 [2, 20]: 0.26 µg/mL (≈ 0.156 µM) | mode of activity of compound alone (P. aeruginosa PA14): bacteriostatic | susceptibility of A. baumannii strain C0286 [3]: resistant | activity at 5 µM ([3]; Acinetobacter baumannii, 5 μM TS, 6 of 10 strains, read-out: growth, % of control): ≤ 50% | solubility (physchem): 10 µM and 17 µg/mL | MIC [4]: ≥ 5 µM
